Here are results for 14 compounds from PubChem BioAssay (NCI).

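Protocol summary: plate cells (96-well), add compound at 5 concentrations, incubate 48 h, interpolate endpoints linearly. GI50 is the concentration that inhibits growth by half. The concentration for full growth arrest is given as TGI.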

Among the test systems are COLO 205 colon; SNB-19 CNS; SF-539 CNS; SNB-75 CNS; HCC-2998 colon; NCI-H522 lung; K-562 leukemia; SN12C renal; SK-MEL-2 melanoma; T-47D breast.
Common to all, as to assay: NCI anticancer screen, dose series, 48 h

Turning to `O=c1oc2c3ccc4ccccc4c3n(CCN3CCOCC3)c2c2ccccc12`, the TGI in the test with COLO 205 colon, in the test with SNB-19 CNS, in the test on SF-539 CNS, with SNB-75 CNS, in the test on HCC-2998 colon and in the test with NCI-H522 lung was greater than 100 µM in each case.
Take `COc1ccc(NC(=O)CC/C(CC(=O)c2ccccc2Cl)=N\Nc2nnc(C)n2N)cc1`: the TGI with COLO 205 colon, with SNB-19 CNS, with K-562 leukemia, with SN12C renal, with SF-539 CNS and in the test on SK-MEL-2 melanoma was greater than 100 µM throughout. Besides, the TGI with HCC-2998 colon is greater than 100 µM.
Regarding `COc1ccc2c(c1)CCc1cnn(C3OC(COC(C)=O)C(OC(C)=O)C(OC(C)=O)C3OC(C)=O)c1-2` (configuration not stated), the TGI in the test with COLO 205 colon, in the test on SNB-19 CNS, in the test with K-562 leukemia, in the test with SN12C renal, in the test on SF-539 CNS and in the test on SK-MEL-2 melanoma was greater than 100 µM each time. The TGI was greater than 100 µM with SNB-75 CNS, greater than 100 µM with HCC-2998 colon and 31.7 µM with NCI-H522 lung.
Regarding `COCC1C(=O)c2cc3c(cc2C12C=CC1(C=C2)OCCO1)OCO3` (configuration not stated), the TGI with COLO 205 colon turned out to be 38 µM; with K-562 leukemia it was 11.2 µM; in the test on SN12C renal it was 22.9 µM; in the test on SF-539 CNS it was 29.3 µM; with SK-MEL-2 melanoma it was 24.5 µM; in the test with SNB-75 CNS it was 28.9 µM. The compound further gave a TGI with NCI-H522 lung of 3.96 µM.
On to `CC1(C)Cc2cccc(OCC(O)CN3CCN(c4ccc(F)cc4)CC3)c2O1` (configuration not stated), for which the GI50 in the test with COLO 205 colon was 11.1 µM; in the test on SNB-19 CNS it was 31.7 µM; in the test on K-562 leukemia, 16.6 µM; in the test with SN12C renal it was 18.9 µM; in the test with SF-539 CNS, 13 µM; with SK-MEL-2 melanoma, 27 µM. For the same compound, the GI50 was 10.9 µM in the test on SNB-75 CNS and 47.8 µM in the test on NCI-H522 lung. Also, the TGI in the test on COLO 205 colon is 26.9 µM; in the test on SNB-19 CNS it was greater than 50 µM; in the test with K-562 leukemia it was greater than 50 µM; in the test with SN12C renal, greater than 50 µM; with SF-539 CNS it was 27.3 µM; in the test on SK-MEL-2 melanoma it was greater than 50 µM. Moreover, the TGI is 34.2 µM with SNB-75 CNS and greater than 50 µM in the test with NCI-H522 lung.
For the compound `CN(C)c1ccc(/C=C/C(=O)c2ccccc2)cc1Br`, the TGI with COLO 205 colon was 34.5 µM; with SNB-19 CNS, 41.3 µM; in the test with K-562 leukemia, 75.7 µM; with SN12C renal, 45.2 µM; with SK-MEL-2 melanoma, 44.5 µM; in the test on SNB-75 CNS, 45.7 µM. The TGI is 37.5 µM with HCC-2998 colon and 31.4 µM in the test on NCI-H522 lung.
As to `COc1ccc(C(=O)/C(=N/Nc2ccccc2)c2ccc(OC)cc2)cc1`, the TGI with COLO 205 colon, with SNB-19 CNS, with K-562 leukemia, with SN12C renal, in the test on SF-539 CNS and in the test on SK-MEL-2 melanoma was greater than 100 µM in each case. In addition, the TGI in the test with SNB-75 CNS, in the test with HCC-2998 colon and in the test on NCI-H522 lung was greater than 100 µM throughout.
Take `Cc1cc2c(cc1C)N1Cc3c(ccc(C)c3C)N(C2)C1` (tested in a mixture with another compound): the TGI in the test with COLO 205 colon, in the test with SNB-19 CNS, in the test on K-562 leukemia, in the test with SF-539 CNS, in the test on SNB-75 CNS and in the test on HCC-2998 colon was greater than 100 µM throughout. The compound further showed a TGI in the test on NCI-H522 lung greater than 100 µM.
Consider `O=C1C(c2ccc([N+](=O)[O-])cc2)=[N+]([O-])c2ccccc21`, for which the TGI in the test on COLO 205 colon was 30.1 µM; in the test with K-562 leukemia, greater than 100 µM; in the test on SN12C renal it was 93.5 µM; in the test with SF-539 CNS, greater than 100 µM; with SK-MEL-2 melanoma, greater than 100 µM; with SNB-75 CNS, 69 µM. This compound returned a TGI in the test with NCI-H522 lung of 20.3 µM.
As for `O=c1cc2n(c(=O)[nH]1)C1OC(C(O)C1O)[C@H]2CCO` (some centres not stated), the TGI in the test on COLO 205 colon, with SNB-19 CNS, in the test on K-562 leukemia, in the test with SN12C renal, in the test on SF-539 CNS and in the test with SK-MEL-2 melanoma was greater than 100 µM throughout. Also, the TGI in the test with NCI-H522 lung was greater than 100 µM.
As to `O=C(CCc1nnc(-c2c(Cl)cccc2Cl)o1)c1nc2ccccc2[nH]1`, the GI50 in the test with T-47D breast is 3.34 µM; in the test on COLO 205 colon it was 2.66 µM; in the test on SNB-19 CNS, 17.4 µM; in the test on SN12C renal it was 6.22 µM; with SF-539 CNS it was 10.5 µM; with SNB-75 CNS it was 18.7 µM. For the same compound, the GI50 with HCC-2998 colon is 6.52 µM. Moreover, the TGI is 60 µM in the test with T-47D breast; 7.08 µM with COLO 205 colon; greater than 100 µM in the test with SNB-19 CNS; 56.9 µM in the test on SN12C renal; 39.6 µM with SF-539 CNS; greater than 100 µM in the test with SNB-75 CNS. The same compound had a TGI in the test with HCC-2998 colon of 32.3 µM.
Turning to `O=c1c2cc(Br)ccc2[nH]c(=S)n1-c1ccc(Br)cc1`, the TGI in the test on COLO 205 colon, in the test on SNB-19 CNS, in the test with K-562 leukemia, with SN12C renal, in the test with SF-539 CNS and with SK-MEL-2 melanoma was greater than 100 µM in each case. Besides, the figures for the TGI in the test with SNB-75 CNS, in the test with HCC-2998 colon and in the test with NCI-H522 lung were 41 µM, greater than 100 µM and greater than 100 µM, respectively.
Consider `O=C(CC1(O)C(=O)Nc2c(Cl)cccc21)c1ccccc1` (configuration not stated), for which the TGI with COLO 205 colon, with SNB-19 CNS, in the test on K-562 leukemia, in the test with SN12C renal, with SK-MEL-2 melanoma and in the test on SNB-75 CNS was greater than 100 µM throughout. Besides, the TGI with HCC-2998 colon and with NCI-H522 lung was greater than 100 µM each time.
Take `O=C(CCCCC(=O)N/N=C\c1ccccc1Cl)N/N=C\c1ccccc1Cl`: the GI50 with T-47D breast was 3.36 µM; with COLO 205 colon it was 2.91 µM; with SNB-19 CNS, 11.3 µM; in the test on K-562 leukemia, 3.02 µM; in the test on SN12C renal it was 7.44 µM; in the test with SF-539 CNS it was 16.9 µM. The results for the GI50 with SK-MEL-2 melanoma, in the test with SNB-75 CNS and in the test with NCI-H522 lung were 12.5 µM, 12.7 µM and 2.13 µM, respectively. Moreover, the TGI with T-47D breast was greater than 100 µM; in the test with COLO 205 colon, greater than 100 µM; in the test on SNB-19 CNS it was 39.6 µM; with K-562 leukemia it was greater than 100 µM; with SN12C renal, greater than 100 µM; in the test with SF-539 CNS it was greater than 100 µM. In addition, the TGI in the test with SK-MEL-2 melanoma was 33.9 µM; in the test on SNB-75 CNS it was 32.9 µM; in the test on NCI-H522 lung, 41.1 µM.
